Experimental data taken from the NIST ThermoML archive (doi:10.1016/j.jct.2006.09.008).
Where “and” joins values, the source holds several entries; their conditions need not be identical. Equal values may be shown once.

Assay: mn = molality of the nth substance listed, in mol/kg
Conditions: 350 kPa, Liquid

O=[N+]([O-])[O-].O=[N+]([O-])[O-].[Mg+2] [magnesium nitrate] + O
mass density [kg/m3]
Conditions	m1 = 0.0228	m1 = 0.0567	m1 = 0.1086	m1 = 0.2145	m1 = 0.3197	m1 = 0.4749	m1 = 0.6211	m1 = 0.811	m1 = 1	m1 = 1.014
278.15 K	1002.6	1006.37	1012.2	1023.83	1035.31	1051.77	1066.82	1086.01	1104.79	1106.04
283.15 K	1002.29	1005.98	1011.77	1023.21	1034.48	1050.8	1065.63	1084.59	1103.2	1104.4
288.15 K	1001.64	1005.28	1011.01	1022.29	1033.42	1049.55	1064.22	1082.99	1101.41	1102.61
298.15 K	999.48	1003.07	1008.68	1019.73	1030.65	1046.49	1060.93	1079.39	1097.46	1098.71
308.15 K	996.42	999.96	1005.49	1016.39	1027.14	1042.74	1056.98	1075.19	1093.03	1094.27
318.15 K	992.59	996.09	1001.54	1012.32	1022.97	1038.38	1052.47	1070.47	1088.14	1089.36
328.15 K	988.06	991.53	996.93	1007.61	1018.17	1033.44	1047.38	1065.25	1082.78	1083.97
338.15 K	982.92	986.36	991.75	1002.35	1012.86	1027.99	1041.88	1059.64	1077.04	1078.2
348.15 K	977.2	980.38	985.71	996.29	1007.11	1022.17	1035.94	1053.67	1071	1071.85
358.15 K	970.99	974.49	979.87	990.4	1000.85	1015.92	1029.76	1047.38	1064.73	1065.89
368.15 K	964.33	967.8	973.17	983.77	994.23	1009.33	1023.17	1040.85	1058.19	1059.34

O=[N+]([O-])[O-].O=[N+]([O-])[O-].[Mn+2] [manganese nitrate] + O
mass density
Conditions	m1 = 0.0248	m1 = 0.0503	m1 = 0.0836	m1 = 0.5132
278.15 K	1003.65 kg/m3	1007.23 kg/m3	1011.97 kg/m3	1069.81 kg/m3 and 1069.71 kg/m3
283.15 K	1003.3 kg/m3	1006.89 kg/m3	1011.53 kg/m3	1068.8 kg/m3 and 1068.6 kg/m3
288.15 K	1002.66 kg/m3	1006.23 kg/m3	1010.8 kg/m3	1067.5 kg/m3 and 1067.36 kg/m3
298.15 K	1000.56 kg/m3	1004.07 kg/m3	1008.54 kg/m3	1064.29 kg/m3 and 1064.16 kg/m3
308.15 K	997.52 kg/m3	1000.98 kg/m3	1005.36 kg/m3	1060.4 kg/m3 and 1060.29 kg/m3
318.15 K	993.61 kg/m3	997.07 kg/m3	1001.42 kg/m3	1055.86 kg/m3 and 1055.72 kg/m3
328.15 K	988.96 kg/m3	992.44 kg/m3	996.79 kg/m3	1050.75 kg/m3 and 1050.71 kg/m3
338.15 K	983.93 kg/m3	987.31 kg/m3	991.63 kg/m3	1045.39 kg/m3 and 1045.24 kg/m3
348.15 K	978.24 kg/m3	981.59 kg/m3	985.88 kg/m3	1039.4 kg/m3 and 1039.32 kg/m3
358.15 K	972 kg/m3	975.36 kg/m3	979.63 kg/m3	1033.07 kg/m3 and 1032.97 kg/m3
368.15 K	965.29 kg/m3	968.63 kg/m3	972.92 kg/m3	1026.26 kg/m3 and 1026.2 kg/m3

O=[N+]([O-])[O-].O=[N+]([O-])[O-].[Sr+2] [strontium nitrate] + O
mass density [kg/m3]
Conditions	m1 = 0.0499	m1 = 0.1006	m1 = 0.2005	m1 = 0.4995	m1 = 0.7992	m1 = 0.9995	m1 = 1.502	m1 = 2.003	m1 = 3.001
278.15 K	1009	1017.14	1034.72	1082.77	1130.52	1158.71	1231.7	1297.55	1414.38
283.15 K	1008.59	1017.1	1033.98	1082.1	1128.88	1157.52	1229.46	1295.12	1411.42
288.15 K	1007.84	1016.26	1032.93	1080.71	1126.92	1155.34	1226.86	1292.1	1407.51
298.15 K	1005.56	1013.81	1030.24	1077.19	1122.76	1150.87	1221.49	1286.04	1400.33
308.15 K	1002.4	1010.56	1026.7	1073.1	1117.95	1146.06	1215.55	1279.41	1393.17
318.15 K	998.47	1006.61	1022.45	1068.41	1112.6	1140.61	1209.17	1272.01	1385.59
328.15 K	993.97	1001.97	1017.66	1063.12	1106.82	1134.72	1201.99	1264.61	1377.87
338.15 K	988.74	996.66	1012.18	1057.26	1100.32	1128.27	1194.55	1256.5	1369.7
348.15 K	983.02	990.85	1006.4	1051.04	1094.06	1121.59	1188.05	1249.78	1361.53
358.15 K	976.66	984.57	999.95	1044.34	1087.19	1114.51	1180.88	1242.32	1353.05
368.15 K	969.9	977.81	993.09	1037.31	1079.94	1107.09	1173.15	1234.38	1344.4
